Counter-ions that a name gives are not always drawn. Marks after values point to notes of the source that are not given here.
How the values were obtained:
female rats = test: 28-day repeated dose oral toxicity study (OECD 407) with GC-MS/LC-MS plasma metabolite profiling, female rats
male rats = test: 28-day repeated dose oral toxicity study (OECD 407) with GC-MS/LC-MS plasma metabolite profiling, male rats; format: in vivo, rat; conditions: plasma
Excerpt: Drinking water was also offered ad libitum.
The samples were centrifuged for generation of plasma.

Structure (SMILES): CN1CCCC1=O [1-Methyl-2-pyrrolidon]
- 3-O-Methylsphingosine (d18:1), ratio versus control (female rats; day 7): 2.14*
- 5-O-Methylsphingosine (d18:1), ratio versus control (female rats; day 7): 2.42*
- 14-Methylhexadecanoic acid, ratio versus control (female rats; day 7): 1.15
- Behenic acid (C22:0), ratio versus control (female rats; day 7): 1.9*
- Cholesterol, ratio versus control (female rats; day 7): 1.73*
- Coenzyme Q9, ratio versus control (female rats; day 7): 2.46*
- DAG (C18:1,C18:2), ratio versus control (female rats; day 7): 2.43*
- Eicosanoic acid (C20:0), ratio versus control (female rats; day 7): 1.77*
- Glucose, ratio versus control (female rats; day 7): 1.05*
- Glycerol phosphate, lipid fraction, ratio versus control (female rats; day 7): 1.86*
- Glycerol, lipid fraction, ratio versus control (female rats; day 7): 2.24*
- Glycerol-3-phosphate, polar fraction, ratio versus control (female rats; day 7): 1.9*
- Heptadecanoic acid (C17:0), ratio versus control (female rats; day 7): 1.46*
- Linoleic acid (C18:cis[9,12]2), ratio versus control (female rats; day 7): 2.52*
- Nervonic acid (C24:cis[15]1), ratio versus control (female rats; day 7): 1.75*
- Palmitic acid (C16:0), ratio versus control (female rats; day 7): 1.91*
- Phosphatidylcholine (C16:0,C20:5), ratio versus control (female rats; day 7): 1.32*
- TAG (C16:0,C18:1,C18:3), ratio versus control (female rats; day 7): 3.94*
- TAG (C16:0,C18:2), ratio versus control (female rats; day 7): 2.46*
- TAG (C18:1,C18:2), ratio versus control (female rats; day 7): 3.73*
- TAG (C18:2,C18:2), ratio versus control (female rats; day 7): 3.44*
- TAG (C18:2,C18:3), ratio versus control (female rats; day 7): 4.16*
- TAG No 01, ratio versus control (female rats; day 7): 3.21*
- TAG No 05, ratio versus control (female rats; day 7): 3.11*
- TAG No 07, ratio versus control (female rats; day 7): 3.69*
- dihomo-gamma-Linolenic acid (C20:cis[8,11,14]3), ratio versus control (female rats; day 7): 2.37*
- erythro-Sphingosine, ratio versus control (female rats; day 7): 2.19*
- 3-O-Methylsphingosine (d18:1), ratio versus control (female rats; day 14): 2.3*
- 5-O-Methylsphingosine (d18:1), ratio versus control (female rats; day 14): 2.31*
- 14-Methylhexadecanoic acid, ratio versus control (female rats; day 14): 0.93
- Behenic acid (C22:0), ratio versus control (female rats; day 14): 2.04*
- Cholesterol, ratio versus control (female rats; day 14): 2.16*
- Coenzyme Q9, ratio versus control (female rats; day 14): 2.57*
- DAG (C18:1,C18:2), ratio versus control (female rats; day 14): 2.31*
- Eicosanoic acid (C20:0), ratio versus control (female rats; day 14): 1.8*
- Glucose, ratio versus control (female rats; day 14): 0.99
- Glycerol phosphate, lipid fraction, ratio versus control (female rats; day 14): 1.72*
- Glycerol, lipid fraction, ratio versus control (female rats; day 14): 2.33*
- Glycerol-3-phosphate, polar fraction, ratio versus control (female rats; day 14): 1.11*
- Heptadecanoic acid (C17:0), ratio versus control (female rats; day 14): 1.39*
- Linoleic acid (C18:cis[9,12]2), ratio versus control (female rats; day 14): 2.4*
- Nervonic acid (C24:cis[15]1), ratio versus control (female rats; day 14): 1.64*
- Palmitic acid (C16:0), ratio versus control (female rats; day 14): 1.95*
- Phosphatidylcholine (C16:0,C20:5), ratio versus control (female rats; day 14): 1.45*
- TAG (C16:0,C18:1,C18:3), ratio versus control (female rats; day 14): 4.14*
- TAG (C16:0,C18:2), ratio versus control (female rats; day 14): 3.6*
- TAG (C18:1,C18:2), ratio versus control (female rats; day 14): 3.82*
- TAG (C18:2,C18:2), ratio versus control (female rats; day 14): 3.56*
- TAG (C18:2,C18:3), ratio versus control (female rats; day 14): 3.61*
- TAG No 01, ratio versus control (female rats; day 14): 4.15*
- TAG No 05, ratio versus control (female rats; day 14): 5.32*
- TAG No 07, ratio versus control (female rats; day 14): 3.84*
- dihomo-gamma-Linolenic acid (C20:cis[8,11,14]3), ratio versus control (female rats; day 14): 2.16*
- erythro-Sphingosine, ratio versus control (female rats; day 14): 2.27*
- 3-O-Methylsphingosine (d18:1), ratio versus control (female rats; day 28): 1.83*
- 5-O-Methylsphingosine (d18:1), ratio versus control (female rats; day 28): 1.89*
- 14-Methylhexadecanoic acid, ratio versus control (female rats; day 28): 1.35*
- Behenic acid (C22:0), ratio versus control (female rats; day 28): 2.06*
- Cholesterol, ratio versus control (female rats; day 28): 2.38*
- Coenzyme Q9, ratio versus control (female rats; day 28): 3.27*
- DAG (C18:1,C18:2), ratio versus control (female rats; day 28): 6.81*
- Eicosanoic acid (C20:0), ratio versus control (female rats; day 28): 2.79*
- Glucose, ratio versus control (female rats; day 28): 0.76*
- Glycerol phosphate, lipid fraction, ratio versus control (female rats; day 28): 2.59*
- Glycerol, lipid fraction, ratio versus control (female rats; day 28): 5.75*
- Glycerol-3-phosphate, polar fraction, ratio versus control (female rats; day 28): 1.29
- Heptadecanoic acid (C17:0), ratio versus control (female rats; day 28): 2.17*
- Linoleic acid (C18:cis[9,12]2), ratio versus control (female rats; day 28): 4.46*
- Nervonic acid (C24:cis[15]1), ratio versus control (female rats; day 28): 1.75*
- Palmitic acid (C16:0), ratio versus control (female rats; day 28): 3.53*
- Phosphatidylcholine (C16:0,C20:5), ratio versus control (female rats; day 28): 1.35*
- TAG (C16:0,C18:1,C18:3), ratio versus control (female rats; day 28): 11.37*
- TAG (C16:0,C18:2), ratio versus control (female rats; day 28): 3.51*
- TAG (C18:1,C18:2), ratio versus control (female rats; day 28): 7.38*
- TAG (C18:2,C18:2), ratio versus control (female rats; day 28): 7.33*
- TAG (C18:2,C18:3), ratio versus control (female rats; day 28): 11.21*
- TAG No 01, ratio versus control (female rats; day 28): 11.51*
- TAG No 05, ratio versus control (female rats; day 28): 10.76*
- TAG No 07, ratio versus control (female rats; day 28): 14.21*
- dihomo-gamma-Linolenic acid (C20:cis[8,11,14]3), ratio versus control (female rats; day 28): 3.96*
- erythro-Sphingosine, ratio versus control (female rats; day 28): 1.9*

Structure (SMILES): CN(CCOc1ccc(CC2SC(=O)NC2=O)cc1)c1ccccn1 (stereo not drawn) [Rosiglitazone maleate]
- Alanine, ratio versus control (male rats; day 7): 0.78*
- Citrulline, ratio versus control (male rats; day 7): 0.88*
- Isoleucine, ratio versus control (male rats; day 7): 0.7*
- Leucine, ratio versus control (male rats; day 7): 0.74*
- Lysine, ratio versus control (male rats; day 7): 0.78*
- Ornithine, ratio versus control (male rats; day 7): 0.85*
- Phenylalanine, ratio versus control (male rats; day 7): 0.85*
- Phosphate (inorganic and organic phosphates), ratio versus control (male rats; day 7): 0.76*
- Phosphatidylcholine (C16:0,C16:0), ratio versus control (male rats; day 7): 1.14*
- Proline, ratio versus control (male rats; day 7): 0.89*
- Valine, ratio versus control (male rats; day 7): 0.74*
- Phosphatidylcholine (C16:0,C20:5), ratio versus control (male rats; day 7 (Table 4a)): 1.07*
- Docosahexaenoic acid (C22:cis[4,7,10,13,16,19]6), ratio versus control (male rats; day 7 (Table 4b)): 0.57*
- Phosphatidylcholine (C18:0,C22:6), ratio versus control (male rats; day 7 (Table 4b)): 0.87*
- Threonine, ratio versus control (male rats; day 7 (Table 4b)): 0.74*
- Alanine, ratio versus control (male rats; day 14): 0.83*
- Citrulline, ratio versus control (male rats; day 14): 0.79
- Isoleucine, ratio versus control (male rats; day 14): 0.72*
- Leucine, ratio versus control (male rats; day 14): 0.66*
- Lysine, ratio versus control (male rats; day 14): 0.77*
- Ornithine, ratio versus control (male rats; day 14): 0.86*
- Phenylalanine, ratio versus control (male rats; day 14): 0.84*
- Phosphate (inorganic and organic phosphates), ratio versus control (male rats; day 14): 0.66*
- Phosphatidylcholine (C16:0,C16:0), ratio versus control (male rats; day 14): 1.22*
- Proline, ratio versus control (male rats; day 14): 0.88*
- Valine, ratio versus control (male rats; day 14): 0.74*
- Phosphatidylcholine (C16:0,C20:5), ratio versus control (male rats; day 14 (Table 4a)): 1.11*
- Docosahexaenoic acid (C22:cis[4,7,10,13,16,19]6), ratio versus control (male rats; day 14 (Table 4b)): 0.66*
- Phosphatidylcholine (C18:0,C22:6), ratio versus control (male rats; day 14 (Table 4b)): 0.9*
- Threonine, ratio versus control (male rats; day 14 (Table 4b)): 0.74*
- Alanine, ratio versus control (male rats; day 28): 0.88*
- Citrulline, ratio versus control (male rats; day 28): 0.86*
- Isoleucine, ratio versus control (male rats; day 28): 0.78*
- Leucine, ratio versus control (male rats; day 28): 0.78*
- Lysine, ratio versus control (male rats; day 28): 0.86*
- Ornithine, ratio versus control (male rats; day 28): 0.78*
- Phenylalanine, ratio versus control (male rats; day 28): 0.81*
- Phosphate (inorganic and organic phosphates), ratio versus control (male rats; day 28): 0.69*
- Phosphatidylcholine (C16:0,C16:0), ratio versus control (male rats; day 28): 1.07
- Proline, ratio versus control (male rats; day 28): 0.93*
- Valine, ratio versus control (male rats; day 28): 0.84*
- Phosphatidylcholine (C16:0,C20:5), ratio versus control (male rats; day 28 (Table 4a)): 1.06
- Docosahexaenoic acid (C22:cis[4,7,10,13,16,19]6), ratio versus control (male rats; day 28 (Table 4b)): 0.83*
- Phosphatidylcholine (C18:0,C22:6), ratio versus control (male rats; day 28 (Table 4b)): 0.84*
- Threonine, ratio versus control (male rats; day 28 (Table 4b)): 0.87*

Source: patent US20150017667A1, “MEANS AND METHODS FOR ASSESSING LIVER DISORDERS” (BASF SE, priority 2012, published 2015)
